Structures can show the parent of a compound that is named as a salt.
Experiments:
NTM strains = experiment: Checkerboard synergy testing, summary over all strains tested; type: cell-based, nontuberculous mycobacteria; settings: clarithromycin, ethambutol, rifabutin, amikacin, bedaquiline
[1] = tested on: M. intracellulare 20-S-13; experiment: Checkerboard antibacterial synergy testing of EBO pairwise combinations; type: cell-based; settings: M. intracellulare 20-S-13, clarithromycin resistant strain
Experimental: Frozen stocks of the drugs were prepared at 5 or 2 mg/ml and frozen in aliquots at −20° C. On the day of the experiment the stocks were thawed and diluted to the appropriate concentration. Middlebrook 7H9 broth and agar, CA-MH agar and Middlebrook OADC were all purchased from Becton-Dickinson and Company (Sparks, MD).
M. avium 2285R (Verma et al. Microbiol (2019) 10: 693) and M intracellulare DNA000111 were obtained from Diane Ordway (Colorado State University, Fort Collins, CO). M. chimaera 20-S-05 and the macrolide/bedaquiline-resistant M. intracellulare 20-S-13 isolate were obtained from Barbara Brown-Elliott (Mycobacteria/Nocardia Research Laboratory, University of Texas Health Science Center, Tyler Tx). […]
The checkerboard methodology was used to test for synergy and antagonism using Middlebrook 7H9+5% OADC (Dubos et al. Am Rev Tuberc (1947) 56:334-45) as the microbiology growth media. […] Synergistic or antagonistic activity was determined using the sum of the fractional inhibitory concentration (ΣFIC) index. The FTC index is calculated as the sum of FTC A+FTC B, where FTC A is the MIC of drug A in the combination of drugs A and B divided by the MIC of drug A alone, plus the MIC of drug B in the combination of drugs A and B divided by the MIC of drug B alone. […]

MAC strains = experiment: Checkerboard synergy testing, summary over the MAC strains tested; type: cell-based, Mycobacterium avium complex; settings: out of a total of 5 MAC strains tested
[2] = in vivo; cited from earlier work

Q: With `NC[C@H]1OB(O)c2c(OCCCO)cccc21` [EBO, epetraborole hydrochloride] as the compound, how does the “Antagonism of EBO activity by second drug” value (NTM strains) read?
A: Its value is “not antagonized”.

Q: With `CC[C@@H](CO)NCCN[C@@H](CC)CO` [EMB, Ethambutol] as the compound, how does the “Interaction between ethambutol and EBO (in words)” value [1] read?
A: Its value is “indifference”.

Q: And the “Synergy/additivity with EBO, number of strains” value (MAC strains)?
A: Its value is “synergy was observed with 2 strains and additivity with an additional 2 strains”.

Q: For `NC[C@H]1OB(O)c2c(OCCCO)cccc21` [epetraborole, Epetraborole], which “Course of hematological abnormalities” value [2] is on record?
A: The value was “return to baseline values after discontinuation of epetraborole”.

Q: And the “RBC parameters (including hemoglobin, RBCs, and reticulocyte counts)” value [2]?
A: Its value is “Decreases in RBC parameters”.

— patent US20260248831A1, “NON-TUBERCULOSIS MYCOBACTERIA INFECTION TREATMENT” (AN2 Therapeutics, Inc., priority 2021, published 2026)
